# Assay results as given in patent US9376444.
# Where two headings read alike, the source gives them in different places.
# Conditions: rcm bond, Grubbs II, DCM, 40.0 °C
compound,measurement,setting,value
COC(=O)Nc1ccc2c(c1)NC(=O)[C@H](C)/C=C/C[C@H](NC(=O)OC(C)(C)C)c1cc-2ccn1,"ring closure, yield of all isomers","from C=CC[C@H](NC(=O)OC(C)(C)C)c1cc(-c2ccc(NC(=O)OC)cc2NC(=O)[C@H](C)C=C)ccn1, 11.76 mM, 4.0 h",71.2%
COC(=O)Nc1ccc2c(c1)NC(=O)[C@H](C)/C=C/C[C@H](NC(=O)OC(C)(C)C)c1nc-2cn1COCC[Si](C)(C)C,"ring closure, yield of all isomers","from C=CC[C@H](NC(=O)OC(C)(C)C)c1nc(-c2ccc(NC(=O)OC)cc2NC(=O)[C@H](C)C=C)cn1COCC[Si](C)(C)C, 9.73 mM, 21.5 h",74%
C[C@@H]1/C=C/C[C@H](NC(=O)OC(C)(C)C)c2cn(COCC[Si](C)(C)C)c(n2)-c2ccc([N+](=O)[O-])cc2NC1=O,"ring closure, yield of all isomers","from C=CC[C@H](NC(=O)OC(C)(C)C)c1cn(COCC[Si](C)(C)C)c(-c2ccc([N+](=O)[O-])cc2NC(=O)[C@H](C)C=C)n1, 1.016 mM",55.9%
